From patent US11103582B2, “Method to achieve extended expression of DNA infused into liver” (IMMUSOFT CORPORATION, priority 2012, dated 2021)

System: Kupffer cells
Details: Dog #17: dexamethasone 1 mg/kg days −1, 0, 2, 4 then twice weekly + cyclophosphamide 10 mg/kg day 0 then weekly; no GdCl3; pKT2/CLP-cSEAP//PGK-SB100x into LHV
Description: Infusions of pKT2/clp-cSEAP//PGK-SB100x (FIG. 2) into the left hepatic vein were carried out as described in the text, collecting plasma samples before, during and after the infusion procedure and assaying for heat stable alkaline phosphatase activity.

Structure (SMILES)	Time after which cSEAP expression was extinguished
O=P1(N(CCCl)CCCl)NCCCO1 (centres unmarked) [Cyclophosphamide]	about 4 weeks
C[C@@H]1C[C@H]2[C@@H]3CCC4=CC(=O)C=C[C@]4(C)[C@@]3(F)[C@@H](O)C[C@]2(C)[C@@]1(O)C(=O)CO [Dexamethasone]	about 4 weeks
